Data: the supplement of paper PMC9663587

Key:
Neratinib/HKI272 = compound: CCOc1cc2ncc(C#N)c(Nc3ccc(OCc4ccccn4)c(Cl)c3)c2cc1NC(=O)/C=C/CN(C)C [Neratinib/HKI272]; experiment: increase in dead-cell fraction, 72 h; higher = more death;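 note: breast cancer cell lines in 384-well plates, stained with Hoechst plus LIVE/DEAD far red dye and imaged, cells above an LDR intensity threshold counted dead, Hoechst-negative corpses included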
[1] = compound: CCc1cnn2c(NCc3ccc[n+]([O-])c3)cc(N3CCCC[C@H]3CCO)nc12; experiment: as above
[2] = compound: CCN1CCN(Cc2ccc(Nc3ncc(F)c(-c4cc(F)c5nc(C)n(C(C)C)c5c4)n3)nc2)CC1; experiment: as above
Flavopiridol [3] = compound: T1, CN1CC[C@H](c2c(O)cc(O)c3c(=O)cc(-c4ccccc4Cl)oc23)[C@H](O)C1 [Flavopiridol]; experiment: as above
LEE011/Ribociclib = compound: CN(C)C(=O)c1cc2cnc(Nc3ccc(N4CCNCC4)cn3)nc2n1C1CCCC1 [LEE011/Ribociclib]; experiment: as above
BSJ-03-123 = compound: CC(=O)c1c(C)c2cnc(Nc3ccc(N4CCN(CCOCCOCCOCCNC(=O)COc5cccc6c5C(=O)N(C5CCC(=O)NC5=O)C6=O)CC4)cn3)nc2n(C2CCCC2)c1=O [BSJ-03-123]; experiment: as above
[4] = compound: CC(=O)c1c(C)c2cnc(Nc3ccc(N4CCNCC4)cn3)nc2n(C2CCCC2)c1=O; experiment: as above
THZ1 [5] = compound: T2, CN(C)C/C=C/C(=O)Nc1ccc(C(=O)Nc2cccc(Nc3ncc(Cl)c(-c4c[nH]c5ccccc45)n3)c2)cc1 [THZ1]; experiment: as above
THZ531 = compound: CN(C)C/C=C/C(=O)Nc1ccc(C(=O)N2CCC[C@@H](Nc3ncc(Cl)c(-c4c[nH]c5ccccc45)n3)C2)cc1 [THZ531]; experiment: GR value, 72 h; higher = faster growth (1 = untreated, <0 = killing);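 note: breast cancer and non-malignant breast epithelial lines, nine half-log doses, viable cells counted by Hoechst and LIVE/DEAD dye imaging versus time-zero plates and DMSO controls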
Flavopiridol [6] = compound: T1, Flavopiridol; experiment: as above
[7] = compound: CC(=O)c1c(C)c2cnc(Nc3ccc(N4CCNCC4)cn3)nc2n(C2CCCC2)c1=O; experiment: as above
THZ1 [8] = compound: T2, THZ1; experiment: as above

HCC1419
increase in dead-cell fraction (Neratinib/HKI272; 0.0003162 µM): -0.0014
increase in dead-cell fraction (Neratinib/HKI272; 0.001 µM): 0.0002
increase in dead-cell fraction (Neratinib/HKI272; 0.003162 µM): 0.0137
increase in dead-cell fraction (Neratinib/HKI272; 0.01 µM): 0.0803
increase in dead-cell fraction (Neratinib/HKI272; 0.03162 µM): 0.168
increase in dead-cell fraction (Neratinib/HKI272; 0.1 µM): 0.238
increase in dead-cell fraction (Neratinib/HKI272; 0.3162 µM): 0.274
increase in dead-cell fraction (Neratinib/HKI272; 1 µM): 0.366
increase in dead-cell fraction (Neratinib/HKI272; 3.162 µM): 0.493
increase in dead-cell fraction ([1]; 0.0001 µM): -0.001
increase in dead-cell fraction ([1]; 0.0003162 µM): -0.0047
increase in dead-cell fraction ([1]; 0.001 µM): -0.0035
increase in dead-cell fraction ([1]; 0.003162 µM): -0.0074
increase in dead-cell fraction ([1]; 0.01 µM): -0.001
increase in dead-cell fraction ([1]; 0.03162 µM): 0.0673
increase in dead-cell fraction ([1]; 0.1 µM): 0.324
increase in dead-cell fraction ([1]; 0.3162 µM): 0.371
increase in dead-cell fraction ([1]; 1 µM): 0.369
increase in dead-cell fraction ([2]; 0.001 µM): -0.0053
increase in dead-cell fraction ([2]; 0.003162 µM): -0.0087
increase in dead-cell fraction ([2]; 0.01 µM): -0.0058
increase in dead-cell fraction ([2]; 0.03162 µM): -0.0119
increase in dead-cell fraction ([2]; 0.1 µM): -0.0149
increase in dead-cell fraction ([2]; 0.3162 µM): -0.0181
increase in dead-cell fraction ([2]; 1 µM): -0.006
increase in dead-cell fraction ([2]; 3.162 µM): -0.0031
increase in dead-cell fraction ([2]; 10 µM): 0.0471
increase in dead-cell fraction (Flavopiridol [3]; 0.0001 µM): -0.0053
increase in dead-cell fraction (Flavopiridol [3]; 0.0003162 µM): -0.0069
increase in dead-cell fraction (Flavopiridol [3]; 0.001 µM): -0.006
increase in dead-cell fraction (Flavopiridol [3]; 0.003162 µM): -0.0084
increase in dead-cell fraction (Flavopiridol [3]; 0.01 µM): -0.0002
increase in dead-cell fraction (Flavopiridol [3]; 0.03162 µM): 0.0077
increase in dead-cell fraction (Flavopiridol [3]; 0.1 µM): 0.0061
increase in dead-cell fraction (Flavopiridol [3]; 0.3162 µM): 0.0159
increase in dead-cell fraction (Flavopiridol [3]; 1 µM): 0.162
increase in dead-cell fraction (LEE011/Ribociclib; 0.001 µM): -0.0016
increase in dead-cell fraction (LEE011/Ribociclib; 0.003162 µM): 0.0044
increase in dead-cell fraction (LEE011/Ribociclib; 0.01 µM): 0.0015
increase in dead-cell fraction (LEE011/Ribociclib; 0.03162 µM): -0.0001
increase in dead-cell fraction (LEE011/Ribociclib; 0.1 µM): 0.0168
increase in dead-cell fraction (LEE011/Ribociclib; 0.3162 µM): 0.0148
increase in dead-cell fraction (LEE011/Ribociclib; 1 µM): 0.0084
increase in dead-cell fraction (LEE011/Ribociclib; 3.162 µM): 0.0128
increase in dead-cell fraction (LEE011/Ribociclib; 10 µM): 0.0195
increase in dead-cell fraction (BSJ-03-123; 0.001 µM): 0.0036
increase in dead-cell fraction (BSJ-03-123; 0.003162 µM): 0.0018
increase in dead-cell fraction (BSJ-03-123; 0.01 µM): 0.0094
increase in dead-cell fraction (BSJ-03-123; 0.03162 µM): 0.0064
increase in dead-cell fraction (BSJ-03-123; 0.1 µM): 0.0141
increase in dead-cell fraction (BSJ-03-123; 0.3162 µM): 0.0138
increase in dead-cell fraction (BSJ-03-123; 1 µM): 0.0115
increase in dead-cell fraction (BSJ-03-123; 3.162 µM): 0.0247
increase in dead-cell fraction (BSJ-03-123; 10 µM): 0.031
increase in dead-cell fraction ([4]; 0.0003162 µM): 0.0008
increase in dead-cell fraction ([4]; 0.001 µM): -0.0028
increase in dead-cell fraction ([4]; 0.003162 µM): -0.0032
increase in dead-cell fraction ([4]; 0.01 µM): -0.0075
increase in dead-cell fraction ([4]; 0.03162 µM): -0.0019
increase in dead-cell fraction ([4]; 0.1 µM): -0.0096
increase in dead-cell fraction ([4]; 0.3162 µM): -0.0094
increase in dead-cell fraction ([4]; 1 µM): -0.0106
increase in dead-cell fraction ([4]; 3.162 µM): -0.0074
increase in dead-cell fraction (THZ1 [5]; 0.0001 µM): -0.0023
increase in dead-cell fraction (THZ1 [5]; 0.0003162 µM): 0.0069
increase in dead-cell fraction (THZ1 [5]; 0.001 µM): 0.0008
increase in dead-cell fraction (THZ1 [5]; 0.003162 µM): 0.001
increase in dead-cell fraction (THZ1 [5]; 0.01 µM): -0.0006
increase in dead-cell fraction (THZ1 [5]; 0.03162 µM): -0.0062
increase in dead-cell fraction (THZ1 [5]; 0.1 µM): 0.0395
increase in dead-cell fraction (THZ1 [5]; 0.3162 µM): 0.147
increase in dead-cell fraction (THZ1 [5]; 1 µM): 0.138
GR value (THZ531; 0.0001 µM): 0.969 GR
GR value (THZ531; 0.0003162 µM): 1.03 GR
GR value (THZ531; 0.001 µM): 1.02 GR
GR value (THZ531; 0.003162 µM): 0.993 GR
GR value (THZ531; 0.01 µM): 1.18 GR
GR value (THZ531; 0.03162 µM): 1.08 GR
GR value (THZ531; 0.1 µM): 0.772 GR
GR value (THZ531; 0.3162 µM): 0.0179 GR
GR value (THZ531; 1 µM): -0.31 GR
GR value (Flavopiridol [6]; 0.0001 µM): 1.06 GR
GR value (Flavopiridol [6]; 0.0003162 µM): 0.994 GR
GR value (Flavopiridol [6]; 0.001 µM): 0.974 GR
GR value (Flavopiridol [6]; 0.003162 µM): 0.95 GR
GR value (Flavopiridol [6]; 0.01 µM): 0.932 GR
GR value (Flavopiridol [6]; 0.03162 µM): 0.894 GR
GR value (Flavopiridol [6]; 0.1 µM): 0.658 GR
GR value (Flavopiridol [6]; 0.3162 µM): 0.396 GR
GR value (Flavopiridol [6]; 1 µM): -0.261 GR
GR value ([7]; 0.0003162 µM): 1.18 GR
GR value ([7]; 0.001 µM): 1.09 GR
GR value ([7]; 0.003162 µM): 1.11 GR
GR value ([7]; 0.01 µM): 0.903 GR
GR value ([7]; 0.03162 µM): 0.828 GR
GR value ([7]; 0.1 µM): 0.612 GR
GR value ([7]; 0.3162 µM): 0.535 GR
GR value ([7]; 1 µM): 0.393 GR
GR value ([7]; 3.162 µM): 0.492 GR
GR value (THZ1 [8]; 0.0001 µM): 0.981 GR
GR value (THZ1 [8]; 0.0003162 µM): 0.953 GR
GR value (THZ1 [8]; 0.001 µM): 1.04 GR
GR value (THZ1 [8]; 0.003162 µM): 1.03 GR
GR value (THZ1 [8]; 0.01 µM): 1.01 GR
GR value (THZ1 [8]; 0.03162 µM): 0.765 GR
GR value (THZ1 [8]; 0.1 µM): 0.228 GR
GR value (THZ1 [8]; 0.3162 µM): -0.215 GR
GR value (THZ1 [8]; 1 µM): -0.386 GR
